Laboratory results taken from US7183445B2, “Cyclohexyl derivatives as selective estrogen receptor modulators” (Janssen Pharmaceutica N.V, priority 2004, dated 2007).
Values joined by “and” are separate entries in the source; they are usually repeats but may differ in a detail not shown here. Equal entries are not always repeated. Where two headings read alike, the source gives them in different places.

Assays:
[1] = tested on: Human Endometrial Ishikawa Cells; assay: Alkaline Phosphatase Assay in Human Endometrial Ishikawa Cells; assay type: cell-based; conditions: for EC50: read-out: Ishikawa Agonist EC50; for IC50: read-out: Ishikawa Antagonist IC50
Protocol: Alkaline Phosphatase Assay in Human Endometrial Ishikawa Cells
This assay was run according to the procedure described by Albert et a., Cancer Res, […], 50(11), 330-6-10, with minor modification.
Ishikawa cells (from ATCC) were maintained in DMEM/F12 (1:1) phenol red free medium (Gibco) supplemented with 10% calf serum (Hyclone). 24 hours prior to testing, the medium was changed to DMEM/F12 (1:1) phenol red free containing 2% calf serum.
Compounds to be tested in the agonist mode were added to the culture media at varying concentrations. Compounds to be treated in the antagonist mode were prepared similarly, and 10 nM 17β-estradiol was also added to the culture media. The cells were then incubated at 37° C. for 3 days. On the fourth day, the media was remove, 1 volume of 1× Dilution Buffer (Clontech) was added to the well followed by addition of 1 volume of Assay Buffer (Clontech). The cells were then incubated at room temperature for 5 minutes. 1 volume of freshly prepared Chemiluminescence Buffer (1 volume of chemiluminescent substrate (CSPD) in 19 volume Chemiluminescent Enhancer with final concentration of CSPD at 1.25 mM; Sigma Chemical Co.) was added. The cells were incubated at room temperature for 10 minutes and then quantified on a luminometer. The increase of chemiluminescence over vehicle control was used to calculate the increase in alkaline phosphatase activity.
(§1) Representative compound of the present invention were tested according to the procedure described in Examples 14 and 15 above, with results as listed in Table. 7.

MCF-7 cells = assay: MCF-7 Cell Proliferation Assay; assay type: cell-based
Protocol: MCF-7 Cell Proliferation Assay
This assay was run according to the procedure described by Welshons, et al., (Breast Cancer Res. Treat., 1987, 10(2), 169–75), with minor modification.
Briefly, MCF-7 cells (from Dr. C. Jordan, Northwestern University) were maintained in RPMI 1640 phenol red free medium (Gibco) in 10% FBS (Hyclone), supplemented with bovine insulin and non-essential amino acid (Sigma). The cells were initially treated with 4-hydroxytamoxifen (10^−8 M) and let stand at 37° C. for 24 hours. Following this incubation with tamoxifen, the cells were treated with compounds at various concentrations.
Compounds to be tested in the agonist mode were added to the culture media at varying concentrations. Compounds to be treated in the antagonist mode were prepared similarly, and 10 nM 17β-estradiol was also added to the culture media. The cells were incubated for 24 hours at 37° C. Following this incubation, 0.1 μCi of ^14C-thymidine (56mCi/mmol, Amersham) was added to the culture media and the cells were incubated for an additional 24 hours at 37° C. The cells were then washed twice with Hank's buffered salt solution (HBSS) (Gibco) and counted with a scintillation counter. The increase in the ^14C-thymidine in the compound treated cells relative to the vehicle control cells were reported as percent increase in cell proliferation.
as §1

hER-β = biological target: T1, hER-β (Homo sapiens, UniProt Q92731); assay: Estrogen Receptor β Fluorescence Polarization Assay; conditions: displacement of Fluormone ES2, fluorescence polarization; read-out: ERβ Binding IC50
T1 construct: purchased Panvera
T1 sequence (Q92731 whole entry): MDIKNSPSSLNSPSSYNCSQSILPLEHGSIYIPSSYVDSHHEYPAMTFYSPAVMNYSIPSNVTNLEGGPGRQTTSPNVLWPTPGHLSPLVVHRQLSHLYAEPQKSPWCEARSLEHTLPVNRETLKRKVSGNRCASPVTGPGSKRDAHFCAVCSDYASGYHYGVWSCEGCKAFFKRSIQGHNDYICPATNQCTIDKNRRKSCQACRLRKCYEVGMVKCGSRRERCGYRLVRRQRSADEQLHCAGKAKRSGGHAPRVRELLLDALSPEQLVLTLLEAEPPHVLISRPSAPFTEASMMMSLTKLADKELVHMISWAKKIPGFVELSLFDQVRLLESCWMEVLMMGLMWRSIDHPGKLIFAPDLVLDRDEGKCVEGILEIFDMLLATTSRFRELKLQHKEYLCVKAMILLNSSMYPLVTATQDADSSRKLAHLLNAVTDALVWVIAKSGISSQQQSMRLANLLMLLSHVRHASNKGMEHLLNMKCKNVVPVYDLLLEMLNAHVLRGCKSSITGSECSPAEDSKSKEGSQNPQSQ
Excerpt: Estrogen Receptor β Fluorescence Polarization Assay
This assay monitors binding of a fluorescent analog of estrogen (Fluormone ES2, Panvera) to the estrogen receptor. Plates are read in a fluorometer that can be set to polarization mode. A decrease in […] relative to vehicle control is an indication of binding of a compound to the receptor.
It is crucial to avoid introduction of air bubbles into the reaction in each well of the 96 well plate throughout this procedure. (Bubbles on the surface of the reaction disrupt light flow, affecting the polarization reading.) However, it is also crucial to effectively mix the reaction components upon addition to the well.
On ice, a 2× standard mixture of Assay Buffer (Panvera), 10 nM DTT and 40 nM ES2 was prepared. On ice, a 2× reaction mixture of Assay Buffer (Panvera), and 20 nM hER-β (Panvera) and 40 nM ES2 was also prepared.
Dilutions of test compound were prepared in 30% (v/v) dimethyl sulfoxide/50 mM HEPES, pH 7.5. At this point, the dilutions were 40× the final required concentration.
The standard mixture at 50 μL was then added to each well. The reaction mixture at 48 μL was added to all wells. The compound dilution at 2.5 μL was added to the appropriate wells. The reaction mixtures were mixed using a manual pipette, a roll of aluminum foil adhesive cover was placed on the plate and the plate incubated at room temperature for 1 hour.
Each well on the plate was then read in an LjL Analyst with an excitation wavelength of […] and an emission wavelength of 538.
(§2) Representative compound of the present invention were tested according to the procedure described above for binding to the Estrogen Receptor α and Estrogen Receptor β, with results as listed in Table 6.

[2] = biological target: T2, human estrogen receptor α (Homo sapiens, UniProt P03372); assay: Estrogen Receptor α Flash Plate Assay; conditions: displacement of radio-labeled estrogen, FlashPlate; read-out: ERα Binding IC50
T2 construct: purchased Panvera
T2 sequence (P03372 1-595): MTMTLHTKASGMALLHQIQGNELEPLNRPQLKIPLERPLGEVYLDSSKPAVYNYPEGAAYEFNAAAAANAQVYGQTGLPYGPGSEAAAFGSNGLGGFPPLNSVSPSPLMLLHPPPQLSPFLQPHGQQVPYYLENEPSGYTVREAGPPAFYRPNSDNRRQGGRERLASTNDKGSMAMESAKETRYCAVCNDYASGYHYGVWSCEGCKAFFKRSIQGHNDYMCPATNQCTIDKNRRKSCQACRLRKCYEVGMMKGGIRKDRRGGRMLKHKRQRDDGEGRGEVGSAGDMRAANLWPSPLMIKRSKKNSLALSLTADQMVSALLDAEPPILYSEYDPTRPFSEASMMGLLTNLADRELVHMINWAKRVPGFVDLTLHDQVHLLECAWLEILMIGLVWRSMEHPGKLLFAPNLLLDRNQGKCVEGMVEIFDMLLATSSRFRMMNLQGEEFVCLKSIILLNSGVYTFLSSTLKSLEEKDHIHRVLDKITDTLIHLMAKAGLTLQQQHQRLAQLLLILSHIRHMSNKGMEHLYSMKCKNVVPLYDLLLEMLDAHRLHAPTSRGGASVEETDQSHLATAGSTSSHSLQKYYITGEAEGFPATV
Protocol: Estrogen Receptor α Flash Plate Assay
This assay monitors binding of radio-labeled estrogen to the estrogen receptor. It is performed on a BioMek 2000 (Beckman). Plates are read in a scintillation counter (Packard TopCount), with decreased counts an indication of binding of a compound to the receptor. The assay was run according to the procedure described by Allan, et al., Anal. Biochem. (1999), 275(2), 243–247.
On day one, 100 μL of Estrogen Screening Buffer (ESB, Panvera) containing 5 mM dithiothreitol (DTT, Panvera), 0.5 μg mouse anti-estrogen receptor monoclonal antibody (SRA-1010, Stressgen) and 50 ng purified human estrogen receptor α (Panvera) were added to each well of a 96 well FlashPlate Plus plate crosslinked with goat anti-mouse antibodies (NEN Life Sciences). The plate was sealed and incubated at 4° C. overnight.
On day two, each well was washed three times with 200 μL PBS, pH 7.2, at room temperature. To each well was then added 98 μL radio-labeled estrogen (0.5 nM, which equals 6 nCi for a 120 Ci/mmol batch, Amersham), diluted in ESB and 5 mM dithiothreitol (DTT). To individual wells were then added 2.5 μL test compound diluted in 30% (v/v) dimethyl sulfoxide/50 mM HEPES, pH 7.5. The wells were mixed three times by aspiration, the plate sealed and incubated at room temperature for one hour. The wells were then counted for 1 min in a TopCount scintillation counter (Packard).
as §2

[3] = Homo sapiens, Ishikawa, 72 h, agonist mode, alkaline phosphatase activity, 3 days
[4] = Homo sapiens, Ishikawa, 72 h, antagonist mode, 10 nM 17β-estradiol added, alkaline phosphatase activity, 3 days
[5] = Homo sapiens, MCF7, agonist mode, 14C-thymidine incorporation, read-out: MCF7 Agonist EC50
[6] = Homo sapiens, MCF7, antagonist mode, 10 nM 17β-estradiol added, 14C-thymidine incorporation, read-out: MCF7 Antagonist IC50

| Compound | IC50 (hER-β) | IC50 [2] [µM] | EC50 [1, 3] [µM] | IC50 [1, 4] [µM] | EC50 (MCF-7 cells; [5]) [µM] | IC50 (MCF-7 cells; [6]) [µM] | other results |
| --- | --- | --- | --- | --- | --- | --- | --- |
| 4-(4-Hydroxy-phenyl)-[4-(2-morpholin-4-yl-ethoxy)-benzyl]-methyl-cyclohex-3-enecarboxylic acid ethyl ester [Compound 38] | 0.9 µM and 0.5 µM |  |  |  |  |  | EC50 ([1]; agonist mode, alkaline phosphatase activity, 3 days): > 10 µM; IC50 ([1]; antagonist mode, 10 nM 17β-estradiol added, alkaline phosphatase activity, 3 days): 2.1 µM; EC50 (MCF-7 cells; agonist mode, 14C-thymidine incorporation, read-out: MCF7 Agonist EC50): > 10 µM; IC50 (MCF-7 cells; antagonist mode, 10 nM 17β-estradiol added, 14C-thymidine incorporation, read-out: MCF7 Antagonist IC50): 5 µM |
| CN(C)CCOc1ccc(C2=C(c3ccc(O)cc3)CCC(C)(CO)C2)cc1 (centres unmarked) [Compound 3, 4-{2-[4-(2-Dimethylamino-ethoxy)-phenyl]-4-hydroxymethyl-4-methyl-cyclohex-1-enyl}-phenol] | 5.7 µM | 6.1 |  |  |  |  |  |
| CCC1C(C)C(CO)CC(c2ccc(OC)cc2)C1c1ccc(O)cc1 (centres unmarked) [Compound 4, 4-[2-Ethyl-4-hydroxymethyl-6-(4-methoxy-phenyl)-3-methyl-cyclohexyl]-phenol] | 1.6 µM | > 10 |  |  |  |  | EC50 ([1]; Homo sapiens, Ishikawa, 72 h): > 10 µM; IC50 ([1]; Homo sapiens, Ishikawa, 72 h): > 10 µM; EC50 (MCF-7 cells; Homo sapiens, MCF7, read-out: MCF7 Agonist EC50): > 10 µM; IC50 (MCF-7 cells; Homo sapiens, MCF7, read-out: MCF7 Antagonist IC50): > 10 µM |
| OC[C@@H]1CC(c2ccccc2)=C(c2ccccc2)C[C@@H]1CO [Compound 18] | < 10 µM | > 10 | > 10 | > 10 | > 10 | > 10 |  |
| CCC1C(c2ccc(O)cc2)=C(c2ccc(OC)cc2)CC(CO)C1C (centres unmarked) [Compound 20, 4-[6-Ethyl-4-hydroxymethyl-2-(4-methoxy-phenyl)-5-methyl-cyclohex-1-enyl]-phenol] | 0.1 µM | 1.85 | 0.7 | 4.5 | 0.48 | > 10 |  |
| CC1(CO)CC=C(c2ccc(O)cc2)CC1 (centres unmarked) [Compound 25, 4-(4-Hydroxymethyl-4-methyl-cyclohex-1-enyl)-phenol] | 0.35 µM | 0.45 | 0.1 | 10 | 0.2 | > 10 |  |
| COc1ccc(C2=C(c3ccc(OC)cc3)CC(CO)C(CO)C2)cc1 (centres unmarked) [Compound 26, [6-Hydroxymethyl-3,4-bis-(4-methoxy-phenyl)-cyclohex-3-enyl]-methanol] | > 10 µM | > 10 | > 10 | > 10 | > 10 | > 10 |  |
| CC1(CO)CCC(c2ccc(O)cc2)=C(c2ccc(O)cc2)C1 (centres unmarked) [Compound 27, (1-methyl-3,4-di(4-hydroxy-phenyl)-cyclohex-3-enyl)-methanol] | 1.5 µM | 0.5 | > 10 | > 10 | > 10 | > 10 |  |
| CC1=C(C)CC(C)(CO)C(C)C1 (centres unmarked) [Compound 36] | 6.9 µM | > 10 |  |  |  |  |  |
| CCOC(=O)C1CC=C(c2ccc(OC)cc2)C(Cc2ccc(OCCN3CCCCC3)cc2)C1C (centres unmarked) [Compound 39] | > 10 µM | > 10 | > 10 | > 10 | > 10 | > 10 |  |
| c1ccc(C2=C(c3ccccc3)CC3COCC3C2)cc1 (centres unmarked) [Compound 52] | 5.7 µM | > 10 | > 10 | > 10 | > 10 | > 10 |  |
| O=C1CCCC2CC(c3ccccc3)=C(c3ccccc3)CC12 (centres unmarked) [Compound 56, 6,7-Diphenyl-3,4,4a,5,8,8a-hexahydro-2H-naphthalen-1-one] |  |  | > 10 | > 10 | > 10 | > 10 |  |
| COc1ccc(C2=C(c3ccc(OC)cc3)C[C@H]3[C@H](CC[C@H]3O)C2)cc1 [Compound 57, 5,6-Bis-(4-methoxy-phenyl)-2,3,3a,4,7,7a-hexahydro-1H-inden-1R-ol] | 4.9 µM | > 10 |  |  |  |  |  |
| COc1ccc(C2=C(c3ccc(OC)cc3)CC3C(CC[C@@H]3O)C2)cc1 (stereo partly drawn) [Compound 61, 5,6-Bis-(4-methoxy-phenyl)-2,3,3a,4,7,7a-hexahydro-1H-inden-1S-ol] | 2 µM | 8.7 | > 10 | > 10 | > 10 | > 10 |  |
| CC1C(CO)CC=C(c2ccc(O)cc2)C1Cc1ccc(OCCN2CCCCC2)cc1 (centres unmarked) [Compound 74] | 0.38 µM | 0.37 |  |  |  |  |  |
